Results on three compounds are retold here after patent US4973704A, “Pyrrolyl intermediates in the synthesis of pyrrole analogs of mevalonolactone and derivatives thereof” (Sandoz Pharm. Corp., priority 1989, dated 1990).

For one test, the target named is T1, HMG-CoA reductase (Rattus norvegicus, UniProt P51639).
T1 construct: from tissue; host or cells: microsomes (printed)
T1 sequence (P51639 1-887): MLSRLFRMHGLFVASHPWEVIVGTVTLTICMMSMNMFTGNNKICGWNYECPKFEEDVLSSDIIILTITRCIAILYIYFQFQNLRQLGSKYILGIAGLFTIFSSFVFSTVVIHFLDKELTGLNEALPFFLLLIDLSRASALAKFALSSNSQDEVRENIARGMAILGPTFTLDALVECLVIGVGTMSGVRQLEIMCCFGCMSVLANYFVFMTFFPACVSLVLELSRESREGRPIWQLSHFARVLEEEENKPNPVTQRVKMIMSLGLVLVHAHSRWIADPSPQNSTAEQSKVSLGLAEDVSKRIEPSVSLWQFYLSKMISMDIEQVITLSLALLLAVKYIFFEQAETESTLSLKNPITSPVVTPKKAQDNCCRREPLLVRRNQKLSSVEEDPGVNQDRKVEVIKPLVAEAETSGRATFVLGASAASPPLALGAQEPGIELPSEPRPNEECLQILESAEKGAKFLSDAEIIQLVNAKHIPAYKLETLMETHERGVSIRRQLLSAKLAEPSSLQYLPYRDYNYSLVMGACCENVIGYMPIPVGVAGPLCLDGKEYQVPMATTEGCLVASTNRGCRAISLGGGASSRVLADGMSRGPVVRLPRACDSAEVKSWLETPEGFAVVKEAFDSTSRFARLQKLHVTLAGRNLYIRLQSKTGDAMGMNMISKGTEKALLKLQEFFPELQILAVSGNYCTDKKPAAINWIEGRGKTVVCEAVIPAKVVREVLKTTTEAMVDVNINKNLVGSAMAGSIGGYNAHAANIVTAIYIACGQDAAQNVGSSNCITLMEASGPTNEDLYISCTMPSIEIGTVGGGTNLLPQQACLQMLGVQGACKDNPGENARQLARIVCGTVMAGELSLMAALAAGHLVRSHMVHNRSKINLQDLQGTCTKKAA
Briefly: Test A. In Vitro Microsomal Assay of HMG-CoA Reductase Inhibition. The format is biochemical. Here is the method: Test A. In Vitro Microsomal Assay of HMG-CoA Reductase Inhibition:
This test is carried out precisely as described in column 53 of U.S. Pat. No. 4,613,610 and on page 30 of World (PCT) Published Patent Application No. 84/02131, both of which are hereby incorporated by reference as if set forth herein in their entirety. The concentration of the test substance (compound of Formula I) in the assay system is 0.0005-2,000 μmolar. The obtained IC50 is the concentration of the test substance in the assay system observed or calculated to produce a 50% inhibition of HMG-CoA reductase activity.

The test system of test [1] is 3β-hydroxysterol synthesis. Kind of test: Test B. In Vivo Cholesterol Biosynthesis Inhibition Test. The conditions noted are these: Rattus norvegicus, po; rats, orally administered; read-out: ED50 (dose producing 50% inhibition of 3β-hydroxysterol synthesis).
Description: Test B. In Vivo Cholesterol Biosynthesis Inhibition Test:
In this test the rats are orally administered the test substance (compound of Formula I) at a dose of 0.1-200 mg/kg. body weight. The obtained ED50 is the dose of the test substance observed or calculated to produce a 50% inhibition of 3β-hydroxysterol synthesis.
Setting [2] is: in vitro microsomal assay, read-out: IC50 (concentration producing 50% inhibition of HMG-CoA reductase activity).

What is called ED50 is the dose at which the effect has come halfway, by size or by number of responders.

pIC50: −log10 of the molar value. Like-named read-outs stand apart in the source and are kept apart here.

As for `CC[C@H](C)C(=O)O[C@H]1CCC=C2C=C[C@H](C)[C@H](CC[C@@H]3C[C@@H](O)CC(=O)O3)[C@H]21` [Compactin], the pIC50 on HMG-CoA reductase (setting [2]) is 5.96.

On HMG-CoA reductase, `CC[C@H](C)C(=O)O[C@H]1C[C@@H](C)C=C2C=C[C@H](C)[C@H](CC[C@@H]3C[C@@H](O)CC(=O)O3)[C@H]21` [Mevinolin] had a pIC50 of 6.14.

For the compound `CC(C)c1cc(-c2ccccc2)n(-c2ccc(F)cc2)c1/C=C/[C@@H](O)C[C@@H](O)CC(=O)O` (relative stereo) [Example 2, Sodium (±)-erythro-(E)-3,5-dihydroxy-7-[1'-(4"-fluorophenyl)-3'-(1"-methylethyl)-5'-phenyl-1H-pyrrol-2'-yl]hept-6-enoate], the ED50 in test [1] is 0.53 mg/kg. For the same compound, the pIC50 at HMG-CoA reductase (setting [2]) was 7.85.
